Measurements from paper PMC3530532, “Corticosteroid-Binding Globulin: Structure-Function Implications from Species Differences” (PLoS ONE, 2012).

Legend:
Format in all cases: binding
Rat CBG-RCL1 = target: T1, Rat CBG-RCL1 (Rattus norvegicus, UniProt P31211, A357V/P358T); assay: Isothermal titration calorimetry, steroid titrated to uncleaved rat CBG-RCL1; details: ITC, 25°C
T1 construct: residues 5 to 374 of rat CBG (P31211); GST (N, cleaved yes); made in house; host or cells: E. coli BL21 Star (DE3)
T1 sequence (P31211 27-396 A357V/P358T): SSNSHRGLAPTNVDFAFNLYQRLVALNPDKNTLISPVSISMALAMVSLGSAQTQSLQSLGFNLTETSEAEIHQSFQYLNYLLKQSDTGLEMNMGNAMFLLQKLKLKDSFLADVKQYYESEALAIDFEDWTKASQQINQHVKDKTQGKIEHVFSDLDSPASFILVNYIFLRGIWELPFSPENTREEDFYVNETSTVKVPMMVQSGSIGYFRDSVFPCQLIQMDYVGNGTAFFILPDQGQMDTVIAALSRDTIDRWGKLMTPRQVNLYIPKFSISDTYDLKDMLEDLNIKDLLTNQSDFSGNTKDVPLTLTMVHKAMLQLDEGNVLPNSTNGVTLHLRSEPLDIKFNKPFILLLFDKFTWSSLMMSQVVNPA
Procedure: The coding sequences of residues 11 to 383 of human CBG (Swiss-Prot entry P08185) and residues 5 to 374 of rat CBG (P31211) were cloned into a pGEX-2T vector (GE Healthcare, Uppsala), yielding N-terminal glutathione-S-transferase (GST) fusion proteins. Mutations were introduced using a two-stage PCR procedure based on the QuikChange (Stratagene, Santa Clara) site-directed mutagenesis protocol. All experiments with human CBG were conducted with a mutant in which surface residue Lys126 was replaced by alanine in order to facilitate crystallization. Wild-type rat CBG (rat CBG-WT) and rat CBG mutants CBG-RCL1, CBG-RCL2 and CBG-RCL3 were produced to probe the function of the RCL residues in rat CBG. All gene constructs were confirmed by DNA sequencing prior to protein production.
The GST-tagged human and rat CBG variants were produced in E. coli BL21 Star™ (DE3) cells (Invitrogen, Carlsbad) using the ZYM-5052 auto-inducing medium. For each variant, 10 L of ZYM-5052 medium containing 100 µg/mL ampicillin were inoculated with an overnight culture of a single clone. The flasks were incubated at 37°C until the optical density at 600 nm reached 0.3. The temperature was then lowered to 20°C, and the cells were allowed to grow for an additional 20 h. The pellet was resuspended in PBS buffer (pH 7.4) containing 5 mM EDTA after cell harvesting (4 mL of buffer per gram of pellet).
The protein samples were dialyzed against ITC buffer (20 mM potassium phosphate, 50 mM NaCl, pH 7.4) and titrated with steroids in a VP-ITC microcalorimeter (Microcal, Piscataway). All solutions were filtered (0.2 µm filter pore size) and degassed for 30 min prior to the titration experiments. The sample cell was filled with protein solution containing 15 µM rat CBG or 20 µM human CBG and titrated with steroid solutions containing 150 µM and 200 µM ligand, respectively. The titrations consisted of an initial injection of 2 µL followed by 25 consecutive injections of 10 µL ligand solution at 25°C. A spacing of 240 sec between the injections was used to allow a return to the baseline. Data points from the initial injection, which are generally affected by diffusion during the initial equilibration period after experiment setup, were discarded prior to data analysis. […] The binding curve was generated by plotting the heats of injections against the ratio of ligand to protein in the cell. Integrated heat data were analyzed using nonlinear regression fit with a one-site-binding model in the Origin-7™ software provided with the VP-ITC. Changes in the free energy and entropy can be calculated using the equation: ΔG° = −RTlnK = ΔH°−TΔS°. In this equation ΔG° is the change in Gibbs free energy, R the universal gas constant, T the temperature, and K the association constant. […]

Cleaved human CBG-WT [1] = target: T2, Cleaved human CBG-WT (Homo sapiens, UniProt P08185, K148A); assay: Isothermal titration calorimetry, steroid titrated to neutrophil elastase-cleaved human CBG-WT; details: ITC, 25°C
T2 construct: residues 11 to 383 of human CBG (Swiss-Prot entry P08185); GST (N, cleaved yes); made in house; host or cells: E. coli BL21 Star (DE3)
T2 sequence (P08185 33-366 K148A): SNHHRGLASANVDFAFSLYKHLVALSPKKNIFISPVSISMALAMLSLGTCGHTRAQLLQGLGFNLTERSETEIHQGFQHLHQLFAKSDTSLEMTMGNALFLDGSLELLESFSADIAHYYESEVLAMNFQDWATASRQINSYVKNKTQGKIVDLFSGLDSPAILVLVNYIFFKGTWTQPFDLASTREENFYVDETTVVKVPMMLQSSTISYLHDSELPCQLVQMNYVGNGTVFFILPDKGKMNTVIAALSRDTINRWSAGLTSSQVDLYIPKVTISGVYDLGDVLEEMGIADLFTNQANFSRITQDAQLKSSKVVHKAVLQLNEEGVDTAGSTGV
T2 sequence (P08185 367-405): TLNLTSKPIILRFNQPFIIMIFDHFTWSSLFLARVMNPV
Procedure: (§1) Cleavage of the RCL in human and rat CBG mutants was accomplished with 100 mU human neutrophil elastase (Sigma-Aldrich) per mg purified CBG at 30°C and monitored by SDS-PAGE. The cleavage reaction was stopped with AEBSF. The protein samples were dialyzed against ITC buffer (20 mM potassium phosphate, 50 mM NaCl, pH 7.4) and titrated with steroids in a VP-ITC microcalorimeter (Microcal, Piscataway). All solutions were filtered (0.2 µm filter pore size) and degassed for 30 min prior to the titration experiments. The sample cell was filled with protein solution containing 15 µM rat CBG or 20 µM human CBG and titrated with steroid solutions containing 150 µM and 200 µM ligand, respectively. The titrations consisted of an initial injection of 2 µL followed by 25 consecutive injections of 10 µL ligand solution at 25°C. A spacing of 240 sec between the injections was used to allow a return to the baseline. Data points from the initial injection, which are generally affected by diffusion during the initial equilibration period after experiment setup, were discarded prior to data analysis. […] The binding curve was generated by plotting the heats of injections against the ratio of ligand to protein in the cell. Integrated heat data were analyzed using nonlinear regression fit with a one-site-binding model in the Origin-7™ software provided with the VP-ITC. Changes in the free energy and entropy can be calculated using the equation: ΔG° = −RTlnK = ΔH°−TΔS°. In this equation ΔG° is the change in Gibbs free energy, R the universal gas constant, T the temperature, and K the association constant. The change in enthalpy is denoted as ΔH°, and ΔS° is the change in entropy under standard conditions. The data shown in Table 2 were obtained from single titrations of each complex.

Cleaved human CBG-WT [2] = assay: as above; details: human CBG, uncleaved vs neutrophil elastase-cleaved, ITC 25°C
Procedure: as §1

**Q.** C[C@]12CCC(=O)C=C1CC[C@@H]1[C@@H]2[C@@H](O)C[C@@]2(C)[C@H]1CC[C@]2(O)C(=O)CO [Hydrocortisone] was tested. Which “TΔS°” value (Rat CBG-RCL1) did it give?
**A.** The value was -29.02 kcal/mol.

**Q.** And the “ΔG°” value (Rat CBG-RCL1)?
**A.** Its value is -9.61 kcal/mol.

**Q.** And the “ΔH°” value (Rat CBG-RCL1)?
**A.** The value was -38.62 kcal/mol.

**Q.** And the Kd (Rat CBG-RCL1; single titration)?
**A.** Its Kd is 95 ± 7 nM.

**Q.** What about the “TΔS°” value (Cleaved human CBG-WT [1]; cleaved human CBG-WT) of the same compound?
**A.** The value was -18.7 kcal/mol.

**Q.** And the “ΔG°” value (Cleaved human CBG-WT [1]; cleaved human CBG-WT)?
**A.** Its value is -8.68 kcal/mol.

**Q.** And the “ΔH°” value (Cleaved human CBG-WT [1]; cleaved human CBG-WT)?
**A.** The value was -27.41 kcal/mol.

**Q.** And the Kd (Cleaved human CBG-WT [1]; single titration, elastase-cleaved human CBG-WT)?
**A.** The Kd was 442 ± 10 nM.

**Q.** What about the “reduction in binding affinity upon RCL cleavage” value (Cleaved human CBG-WT [2]) of the same compound?
**A.** The value was “ten-fold”.
